According to ChEMBL document CHEMBL4765295, “Synthesis, pharmacological profile and 2D-QSAR studies of curcumin-amino acid conjugates as potential drug candidates” (Eur J Med Chem, 2020):
“And” between values parts separate entries of the source, which are not always exact repeats. Equal entries are not always repeated.

Experiments:
[1] = Ulcerogenic activity in fasted albino mouse assessed as average number of ulcers in gastric mucosa at 10 mg/kg, po for 3 days (reference value: 0); assay type: toxicity, organism-based; details: in vivo, 72 h, time 3 day
Mus musculus [2] = test: Analgesic activity in albino mouse assessed as protection at 10 mg/kg, ip measured after 30 mins by hot plate test (reference value: 0 %); assay type: functional; details: 0.5 h
Splenocyte [3] = test: Immunomodulatory activity in Swiss albino mouse splenocytes assessed as cell viability at 10 uM by measuring inhibition of stimulation index incubated for 72 hrs in presence of mitogenic stimulus phytohaemagglutinin by MTT assay relative to indomethacin; assay type: functional; details: read-out: Activity
Rattus norvegicus [4] = test: Anti-inflammatory activity in Wistar rat assessed as inhibition of carrageenan-induced paw edema at 10 mg/kg, ip pretreated for 1 hr followed by carrageenan challenge and measured after 1 hr relative to control (reference value: 0.00 +/-0.02 %); assay type: functional; details: time 2 hrs
Candida albicans = test: Antifungal activity against Candida albicans incubated for 18 to 24 hrs by CLSI method; assay type: functional; details: time 18-24 hrs
PC-3 = test: Antiproliferative activity against human PC3 cells assessed as inhibition of cell growth after 72 hrs by MTT assay; assay type: functional, cell-based; details: PC-3, 72 h
Mus musculus [5] = test: Analgesic activity in albino mouse assessed as protection at 10 mg/kg, ip measured after 120 mins by hot plate test (reference value: 0 %); assay type: functional; details: 2 h
[6] = Toxicity in albino mouse assessed as induction of toxic symptoms at 50 to 100 mg/kg, ip measured after 24 hrs; assay type: organism-based; details: in vivo, dose 50-100 mg/kg
Rattus norvegicus [7] = test: Antiinflammatory activity in Wistar rat model of carrageenan-induced paw edema assessed as reduction in thickness of paw edema at 10 mg/kg, ip pretreated for 1 hr followed by carrageenan challenge and measured after 3 hrs (reference value: 1.79 +/-0.07 mm); assay type: functional; details: time 4 hrs
Splenocyte [8] = test: Immunomodulatory activity in Swiss albino mouse splenocytes assessed as cell viability at 10 uM by measuring stimulation index incubated for 72 hrs in presence of mitogenic stimulus phytohaemagglutinin by MTT assay (reference value: 1.00 +/- 0.24); assay type: functional
[9] = Ulcerogenic activity in fasted albino mouse assessed as incidence of gastric ulceration at 10 mg/kg, po for 3 days (reference value: 0 %); assay type: toxicity, organism-based; details: in vivo, 72 h, time 3 day
Pseudomonas aeruginosa = test: Antibacterial activity against Pseudomonas aeruginosa ATCC 27853 incubated for 18 hrs by agar dilution assay; assay type: functional
Mus musculus [10] = test: Analgesic activity in albino mouse assessed reduction in acetic acid-induced abdominal writhing by measuring writing reflex at 10 mg/kg, ip pretreated for 1 hr followed by acetic acid challenge and measured starting 5 mins post acetic acid challenge for 10 mins (reference value: 42.4 +/- 1.02); assay type: functional; details: time 75 min, 1.25 h
[11] = Ulcerogenic activity in fasted albino mouse assessed as average severity of ulcers in gastric mucosa at 10 mg/kg, po for 3 days (reference value: 0); assay type: toxicity, organism-based; details: in vivo, 72 h, time 3 day
Rattus norvegicus [12] = test: Antiinflammatory activity in Wistar rat model of carrageenan-induced paw edema assessed as reduction in thickness of paw edema at 10 mg/kg, ip pretreated for 1 hr followed by carrageenan challenge and measured after 2 hrs (reference value: 2.06 +/-0.09 mm); assay type: functional; details: time 3 hrs
Rattus norvegicus [13] = test: Antiinflammatory activity in Wistar rat model of carrageenan-induced paw edema assessed as reduction in thickness of paw edema at 10 mg/kg, ip pretreated for 1 hr followed by carrageenan challenge and measured after 24 hrs (reference value: 0.83 +/-0.08 mm); assay type: functional; details: time 25 hrs
Peritoneal macrophage [14] = test: Antiinflammatory activity in […] mouse Peritoneal macrophages assessed as inhibition of LPS-induced NO production at 10 uM preincubated for 1 hr followed by LPS stimulation measured after 24 hrs by Griess method relative to control (reference value: 0.0 %); assay type: functional; set-up: scale not given: the % may be the effect or the level left; details: time 25 hrs
Mus musculus [15] = test: Analgesic activity in albino mouse assessed as protection at 10 mg/kg, ip measured after 90 mins by hot plate test (reference value: 0 %); assay type: functional; details: 1.5 h
[16] = Ulcerogenic activity in fasted albino mouse assessed as ulcer index in gastric mucosa at 10 mg/kg, po for 3 days (reference value: 0); assay type: toxicity, organism-based; details: in vivo, 72 h, time 3 day
Mus musculus [17] = test: Analgesic activity in albino mouse assessed protection against acetic acid-induced abdominal writhing at 10 mg/kg, ip pretreated for 1 hr followed by acetic acid challenge and measured starting 5 mins post acetic acid challenge for 10 mins relative to indomethacin; assay type: functional; details: time 75 min, 1.25 h
Rattus norvegicus [18] = test: Antiinflammatory activity in Wistar rat model of carrageenan-induced paw edema assessed as reduction in thickness of paw edema at 10 mg/kg, ip pretreated for 1 hr followed by carrageenan challenge and measured after 4 hrs (reference value: 1.40 +/-0.10 mm); assay type: functional; details: time 5 hrs
Rattus norvegicus [19] = test: Anti-inflammatory activity in Wistar rat assessed as inhibition of carrageenan-induced paw edema at 10 mg/kg, ip pretreated for 1 hr followed by carrageenan challenge and measured after 4 hr relative to control (reference value: 0.00 +/-0.4 %); assay type: functional; details: time 5 hrs
Mus musculus [20] = test: Analgesic activity in albino mouse assessed as forepaw licking/jumping latency time at 10 mg/kg, ip measured after 30 mins by hot plate test (reference value: 5.02 +/- 0.09 sec); assay type: functional; details: 0.5 h
Peritoneal macrophage [21] = test: Antiinflammatory activity in […] mouse Peritoneal macrophages assessed as reduction in LPS-induced NO production by measuring reduction in stimulation index at 10 uM preincubated for 1 hr followed by LPS stimulation measured after 24 hrs by Griess method (reference value: 27.31 +/- 2.56 uM); assay type: functional; details: time 25 hrs
Staphylococcus aureus = test: Antibacterial activity against Staphylococcus aureus ATCC 25923 incubated for 18 hrs by agar dilution method; assay type: functional
A549 = test: Antiproliferative activity against human A549 cells assessed as inhibition of cell growth after 72 hrs by MTT assay; assay type: functional, cell-based; details: A549, 72 h
Mus musculus [22] = test: Analgesic activity in albino mouse assessed as forepaw licking/jumping latency time at 10 mg/kg, ip measured after 60 mins by hot plate test (reference value: 3.42 +/- 0.03 sec); assay type: functional; details: 1 h
Rattus norvegicus [23] = test: Antiinflammatory activity in Wistar rat model of carrageenan-induced paw edema assessed as reduction in thickness of paw edema at 10 mg/kg, ip pretreated for 1 hr followed by carrageenan challenge and measured after 1 hr (reference value: 2.41 +/-0.05 mm); assay type: functional; details: time 1 hr after carrageenan
Mus musculus [24] = test: Analgesic activity in albino mouse assessed as protection at 10 mg/kg, ip measured after 60 mins by hot plate test (reference value: 0 %); assay type: functional; details: 1 h
Mus musculus [25] = test: Analgesic activity in albino mouse assessed as protection at 10 mg/kg, ip measured after 120 mins by hot plate test relative to indomethacin; assay type: functional; details: 2 h
Mus musculus [26] = test: Analgesic activity in albino mouse assessed protection against acetic acid-induced abdominal writhing at 10 mg/kg, ip pretreated for 1 hr followed by acetic acid challenge and measured starting 5 mins post acetic acid challenge for 10 mins relative to control (reference value: 0 %); assay type: functional; details: time 75 min, 1.25 h
Streptococcus pyogenes = test: Antibacterial activity against Streptococcus pyogenes ATCC 19615 incubated for 18 hrs by agar dilution method; assay type: functional
Rattus norvegicus [27] = test: Anti-inflammatory activity in Wistar rat assessed as inhibition of carrageenan-induced paw edema at 10 mg/kg, ip pretreated for 1 hr followed by carrageenan challenge and measured after 4 hr relative to indomethacin; assay type: functional; details: time 5 hrs
Mus musculus [28] = test: Analgesic activity in albino mouse assessed as forepaw licking/jumping latency time at 10 mg/kg, ip measured after 120 mins by hot plate test (reference value: 2.62 +/- 0.06 sec); assay type: functional; details: 2 h
MCF7 = test: Antiproliferative activity against human MCF7 cells assessed as inhibition of cell growth after 72 hrs by MTT assay; assay type: functional, cell-based; details: MCF7, 72 h
Mus musculus [29] = test: Analgesic activity in albino mouse assessed as forepaw licking/jumping latency time at 10 mg/kg, ip measured after 90 mins by hot plate test (reference value: 2.72 +/- 0.01 sec); assay type: functional; details: 1.5 h
Rattus norvegicus [30] = test: Anti-inflammatory activity in Wistar rat assessed as inhibition of carrageenan-induced paw edema at 10 mg/kg, ip pretreated for 1 hr followed by carrageenan challenge and measured after 2 hr relative to control (reference value: 0.00 +/-0.03 %); assay type: functional; details: time 3 hrs
Rattus norvegicus [31] = test: Anti-inflammatory activity in Wistar rat assessed as inhibition of carrageenan-induced paw edema at 10 mg/kg, ip pretreated for 1 hr followed by carrageenan challenge and measured after 3 hr relative to control (reference value: 0.00 +/-0.1 %); assay type: functional; details: time 4 hrs
Salmonella typhimurium = test: Antibacterial activity against Salmonella typhimurium ATCC 19430 incubated for 18 hrs by agar dilution assay; assay type: functional, Salmonella enterica subsp. enterica serovar Typhimurium; details: Salmonella enterica
Rattus norvegicus [32] = test: Anti-inflammatory activity in Wistar rat assessed as inhibition of carrageenan-induced paw edema at 10 mg/kg, ip pretreated for 1 hr followed by carrageenan challenge and measured after 24 hr relative to control (reference value: 0.00 +/-0.3 %); assay type: functional; details: time 25 hrs

MIC (Candida albicans): 0.5 µg/mL and 0.857 µM
IC50 (PC-3): 30.2 µM
MIC (Pseudomonas aeruginosa): 1 µg/mL and 1.71 µM
MIC (Staphylococcus aureus): 1 µg/mL and 1.71 µM
IC50 (A549): 32.4 µM
MIC (Streptococcus pyogenes): 1 µg/mL and 1.71 µM
IC50 (MCF7): 9.36 µM
MIC (Salmonella typhimurium): 1 µg/mL and 1.71 µM
SMILES: COc1cc(/C=C/C(=O)/C=C(O)/C=C/c2ccc(OC(=O)CCN)c(OC)c2)ccc1OC(=O)CCN.Cl.Cl
Activity [1]: 0
Activity (Mus musculus [2]): 8.8%
viability at 10 µM (Splenocyte [3]): 87.4%
inhibition in vivo at 10 mg/kg (Rattus norvegicus [4]): 69%
Activity (Mus musculus [5]): 35.9%
Activity [6]: Non-Toxic
Activity (Rattus norvegicus [7]): 0.42 mm
Activity_index (Splenocyte [8]): 1.39
Activity [9]: 0%
Activity (Mus musculus [10]): 25.6
Activity [11]: 0
Activity (Rattus norvegicus [12]): 0.6 mm
Activity (Rattus norvegicus [13]): 0.23 mm
Activity (Peritoneal macrophage [14]): 41.68%
Activity (Mus musculus [15]): 52.9%
UI [16]: 0
Activity (Mus musculus [17]): 64.3%
Activity (Rattus norvegicus [18]): 0.16 mm
inhibition in vivo at 10 mg/kg (Rattus norvegicus [19]): 89%
Time (Mus musculus [20]): 5.46 s
Activity (Peritoneal macrophage [21]): 15.93 µM
Time (Mus musculus [22]): 5.2 s
Activity (Rattus norvegicus [23]): 0.74 mm
Activity (Mus musculus [24]): 52%
Activity (Mus musculus [25]): 85.5%
Activity (Mus musculus [26]): 39.6%
inhibition in vivo at 10 mg/kg (Rattus norvegicus [27]): 102%
Time (Mus musculus [28]): 3.56 s
Time (Mus musculus [29]): 4.16 s
inhibition in vivo at 10 mg/kg (Rattus norvegicus [30]): 71%
inhibition in vivo at 10 mg/kg (Rattus norvegicus [31]): 77%
inhibition in vivo at 10 mg/kg (Rattus norvegicus [32]): 72%
